The text below walks through data of patent publication US20210228552A1, “METHOD FOR ADJUSTING RAS UBIQUITINATION” (Xiamen University, priority 2018, published 2021).

The target of experiment [1] is T1, K-Ras-G12V (Homo sapiens, UniProt P01116, G12V). The experiment is described as follows: Exogenous Flag-K-Ras-G12V protein level in transfected HEK293T cells (Western blotting). Format: cell-based. To be noted: HEK293T cells transfected with Flag-K-Ras-G12V, 2.5-20 μM, 24 h, FIG. 3(b). On the procedure: Compounds that can Decrease the Level of Exogenous K-Ras-G12V were Screened in HEK293T Cells
1) Cell plating: HEK293T cells in logarithmic growth phase were inoculated into 12-well plates and cultured in 37° C. and 5% CO2 incubator. The best inoculation amount was at a cell density of 70%-90% when transfected the next day. […]
(§1) 3) Detection of K-Ras protein level: 24 hours after administration, liquid in the well was discarded, the cells were routinely collected, the cells were rinsed twice with 1×PBS, and the cell lysate was added to extract the total cell protein. The protein concentration was determined by BCA method. […]
4) Calculation of single point K-Ras protein degradation rate: quantitative and calibration analysis on Flag-K-Ras and β-actin were performed by Image-Lab software, and then the intracellular Flag-K-Ras degradation rate was calculated according to the following formula: single point Flag-K-Ras protein degradation rate (%)=(control group-administration group)/control group×100%. […]

In another experiment the test system is MCF-7 cells. Description: Colony forming ability on soft agar, MCF-7 cells. Format: cell-based, Human. As to conditions: 10-30 days, FIG. 4(a). How it is done:
(§2) i. 1% agar was prepared and sterilized under high pressure. 1% Agar was heated and melted in a boiling water bath before use, then cooled in a 40° C. water bath (standing for at least 30 minutes and cooling the agar to 40° C.); and 2×DMEM/FBS was placed in a warm bath at the same time;
(§3) ii. 0.5% bottom agar was prepared by mixing 1% agar and 2×DMEM/FBS in a sterile tube at a volume ratio of 1:1. The mixture was quickly added to a 6-well plate, 1.5 mL per well, gently shake it well, and it was stood at room temperature to be solidified (after solidification, it can be stored at 4° C. for 1 week. Leave at room temperature for at least 30 minutes before use to restore it to room temperature).
(§4) i. A final concentration of 0.3% agar+1×DMEM/FBS mixture was prepared in sterile tubes by using 1% agar at a temperature of 40° C., 2×DMEM/FBS and sterile water. The prepared mixed solution was put into a 40° C. water bath kettle for later use;
(§5) ii. The cells were digested by trypsin and counted, and the cell density was adjusted according to the needs of the experiment; […]

For a further experiment, the system named is SW620 cells. The experiment is described as follows: Colony forming ability on soft agar, SW620 cells. Format: cell-based, Human. As to conditions: 10-30 days, FIG. 4(b). How it is done: as §2, §3, §4, §5
Another experiment concerns HT-29 cells. The experiment is described as follows: Colony forming ability on soft agar, HT-29 cells. The format is cell-based, Human. To be noted: HT-29 cells (Raf kinase mutation), 10-30 days, FIG. 4(c). How it is done: as §2, §3, §4, §5
In experiment [2] the target is T1, K-Ras-G12V. Description: Endogenous K-Ras-G12V protein level in SW620 cells (Western blotting). The format is cell-based. More on the design: endogenous in cells; host or cells: SW620. As to conditions: 2.5-20 μM, 24 h, FIG. 3(a). How it is done:
Compounds that can Decrease the Level of Endogenous K-Ras-G12V were Screened in SW620 Cells
1) Cell plating: SW620 cells in logarithmic growth phase were inoculated into 24-well plates with 2×10^4/well and cultured in 37° C. and 5% CO2 incubator.
2) Cell administration: after 24 hours of culture, various drug stock solutions were diluted […]; the stock solution from the 24-well plate was discarded, then the prepared drug solution was added, with taking the DMSO group as a blank control; after the drug was added, it was transferred to the CO2 incubator at 37° C. to continue the culture.
as §1
4) Calculation of single point K-Ras protein degradation rate: quantitative and calibration analysis on K-Ras and β-actin were performed by Image-Lab software, and then the intracellular K-Ras degradation rate was calculated according to the following formula: single point K-Ras protein degradation rate (%)=(control group-administration group)/control group×100%. […]
A general note: A western blot detects proteins with antibodies after separation by electrophoresis.

SMILES strings stand for the structures. “Also recorded” adds a separate entry of the source.

As for `O=C(NCc1ccccc1C(F)(F)F)c1c[nH]c(-c2n[nH]c3ncccc23)c1` [ZT-10-158-01], the “level of exogenous K-Ras-G12V protein” value on K-Ras-G12V [1] is “effective in decreasing K-Ras protein levels in cells, and in a positive concentration-dependent correlation; also recorded: effective in decreasing the level of exogenous K-Ras-G12V protein in HEK293T cells with a positive concentration-dependent inhibitory effect”. Also, the “colony forming ability on agar” value is listed as “can selectively inhibit the colony formation; also recorded: effective in inhibiting colony forming ability” in the experiment with MCF-7 cells, “can selectively inhibit the colony formation; also recorded: effective in inhibiting colony forming ability” in the experiment with SW620 cells and “no significant inhibitory effect; also recorded: did not inhibit the colony forming ability” in the experiment with HT-29 cells. Moreover, the “level of endogenous K-Ras-G12V protein” value on K-Ras-G12V [2] is “effective in decreasing K-Ras protein levels in cells, and in a positive concentration-dependent correlation; also recorded: effective in decreasing the level of endogenous K-Ras-G12V protein in SW620 cells with a positive concentration-dependent inhibitory effect”.
